The values below come from ChEMBL document CHEMBL1157539, “Thousands of chemical starting points for antimalarial lead identification” (Nature, 2010).

The assay concerns Plasmodium falciparum. The assay can be described thus: GSK_TCMDC: Inhibition of Plasmodium falciparum 3D7 in whole erythrocytes, using parasite LDH activity as an index of growth. Format: functional, organism-based. The settings on record: Plasmodium falciparum, 3D7.
For the compound `C=C1C(C(=O)OCC)=CN(CC)c2cc(O[C@@H]3CCN(C(=O)OC(C)(C)C)C3)ccc21`, the XC50 worked out at 290 nM.
For the compound `Cc1ccc(CN2CCN(c3cc4c(cc3Cl)CCN4C(=O)Cc3ccc(Cl)c(NC(=O)Nc4cccc(C#N)c4)c3)CC2)cc1`, the XC50 was 1130 nM.
For the compound `CNc1c2c(nc3ccc(NC(=O)CCCCCCc4ccccc4)cc13)CCCC2`, the XC50 was determined as 915 nM.
In the case of `CCCCCCCCNCC(O)c1ccc(Cl)c(Cl)c1` (configuration not stated), the XC50 was 819 nM.
As for `COc1ccc(Cl)cc1NC(=O)C(C)N1CCN(S(=O)(=O)c2ccccc2F)CC1` (configuration not stated), the figure is 672 nM; as for `Oc1cccc(C2CCCN(CCc3c[nH]c4ccccc34)C2)c1` (configuration not stated), 857 nM.
The compound `COc1ccc(NC(=O)c2ccc(Br)c(C)c2)cc1N1CCN(Cc2ccccc2)CC1` gave an XC50 of 918 nM.
Regarding `CN1CCN(CC(=O)Nc2cccc(-c3cccc(-c4nc5ccccc5[nH]4)c3)c2)CC1`, the XC50 was found to be 1290 nM.
The compound `COc1cccc(NC(=O)NC2CCN(c3ccnc(Nc4ccc(F)cc4)n3)C2)c1` (configuration not stated) yielded an XC50 of 570 nM.
`COc1cc(NC(=O)c2sc(-c3ccc(Cl)cc3)cc2Cl)ccc1OCCN1CCCC1` showed an XC50 of 976 nM.
For `Cc1cccnc1Nc1nc(-c2ccccn2)cs1` the value was 687 nM.
`Cc1[nH]c(C)c(-c2ccc(-c3ccccc3C(F)(F)F)nc2)c(=O)c1Br`: the XC50 amounted to 168 nM.
Turning to `COc1ccc(N2CCN(CCCCNC(=O)c3ccc(NC(=O)c4ccc(C(F)(F)F)cc4)cc3)CC2)c(OC)c1`, the XC50 stood at 593 nM.
On to `COc1cc(CNC2Cc3ccccc3C2)ccc1Oc1ccc2nc[nH]c2c1`, for which the XC50 was 949 nM.
As for `Cc1ccc([N+](=O)[O-])cc1NC(=O)N(CC(O)c1ccccc1)C1CCCCC1` (configuration not stated), the figure is 730 nM; as for `CCc1ccc(CN2CCC(C(=O)Nc3ccc(-c4nc5ccccc5[nH]4)cc3)CC2)o1`, 610 nM; as for `Cc1[nH]c(C)c(-c2ccc(OCc3ccc(F)cc3)nc2)c(=O)c1Br`, 203 nM.
As for `Cc1cc(-c2cc(Cl)ccc2Cl)no1`, the XC50 stood at 168 nM.
Consider `C=CCNC(=O)CCCNC(=N)N`, for which the XC50 was 717 nM.
`CCCCCc1cc(OCCN(C)C)cc2c1C(=O)CC(C)(C)O2` had an XC50 of 103 nM.
As for `COc1ccc(-c2ccc(NC(=O)c3ccc(C#N)cc3)cc2)cc1CN1CCCC1`, the XC50 came out at 873 nM.
`O=C(/C=C/c1ccc(Cl)c(Cl)c1)NC1CCN(Cc2ccc(O)cc2)CC1` came in with an XC50 of 691 nM.
`CC(C)CNCc1cccc(-c2cccc(CNC3CCN(Cc4ccccc4)CC3)c2)c1` registered an XC50 of 183 nM.
For `CC1CN(C(=O)c2sc3ccccc3c2Cl)CC(C)O1` (configuration not stated) the value was 87.9 nM; for `O=C(NC1CC1)c1cnc(N2CCC(Cc3ccccc3)CC2)c(Cl)c1`, 672 nM; for `CCN1CCN(CCCCNc2c3ccccc3nc3ccccc23)CC1`, 860 nM.
For `CC(=O)Nc1ccc(C(=O)Nc2cccc(-c3cccc(-c4nc5cccc(C)c5[nH]4)c3)c2)cn1`, the XC50 was 64.7 nM.
For `O=c1cc(NCCCCNCc2cccc(C(F)(F)F)c2)[nH]c2ccccc12` the value was 789 nM; for `CN1CCC(c2c[nH]c3ccc(NC(=O)Nc4ccc(-c5ccncc5)cc4Cl)cc23)CC1`, 836 nM.
The compound `c1ccc(CN2CCC(NCc3ccccc3-c3cccc(CNC4CCCC4)c3)CC2)cc1` registered an XC50 of 718 nM.
For `CC(C)CC(=O)NC1CCN(Cc2c(-c3cccs3)nc3ccccc3c2C(=O)N[C@@H](C)C2CCCCC2)CC1` the value was 819 nM; for `CCc1cc([C@H]2O[C@@H](n3cnc4c(NCC(c5ccccc5)c5ccccc5)nc(NCCNc5ccccn5)nc43)[C@H](O)[C@@H]2O)on1`, 891 nM.
Regarding `Cc1ccc(NC(=O)c2ccc(CN3CCCN(CCC(C)C)CC3)cc2)cc1F`, the XC50 worked out at 609 nM.
Compound `Cc1cccc2nc(-c3ccc(-c4ccc(CN5CCN(CC6CCCN(C)C6)CC5)cc4)s3)[nH]c12` (configuration not stated) had an XC50 of 142 nM.
Turning to `C=C[C@H]1CN(CCCCCCC)CC[C@H]1CCN(C)c1ccnc2ccc(OC)cc12`, the XC50 amounted to 446 nM.
In the case of `Oc1ccc2[nH]c(-c3cccc(F)c3)nc2c1CN1CCC(O)(c2ccccc2)CC1`, the XC50 amounted to 994 nM.
In turn, `Cc1nc(C)c(-c2cccc(Oc3ccc(Cl)cc3)c2)c(O)c1Br` displayed an XC50 of 73.6 nM.
Compound `Cc1cc(N2C(N)=NC(N)=NC2(C)C)ccc1Cl` yielded an XC50 of 20.9 nM.
As for `CCCCN(Cc1cc(Cl)c(OCC)c(OC)c1)c1ccc(C(O)(C(F)(F)F)C(F)(F)F)cc1`, the figure is 915 nM; as for `CCC(C)OC(=O)C1=C(C)NC2=C(C(=O)CC(c3ccc(OC)c(OC)c3)C2)C1c1ccc(O)cc1` (configuration not stated), 218 nM.
`CCN1C(=O)C(CC(=O)Nc2cccc(Cl)c2)N(Cc2ccc(OC)c(OC)c2)C1=S` (configuration not stated) came in with an XC50 of 607 nM.
On to `O=C(Nc1ccc(F)c(F)c1)c1ccc(CN2CCCN(Cc3cccc(O)c3)CC2)cc1`, for which the XC50 is 836 nM.
For `COc1ccc2nc(N3CCNCC3)nc(NCCCc3ccccc3)c2c1` the value was 1000 nM.
As for `CC(C)(C)OC(=O)C1CCCN(Cc2ccc(-c3cccc(-c4nc5ccccc5[nH]4)c3)cc2)C1` (configuration not stated), the figure is 358 nM; as for `CC(C)CCN1CCC(Oc2ccc(NC(=O)c3ccc4ncccc4c3)cc2Cl)C1` (configuration not stated), 974 nM; as for `CC1(C)NC(N)=NC(=N)N1OCCCOc1cc(Cl)ccc1Cl`, 3.2 nM.
For `COc1ccc2nccc(N3CCC(CCNCc4ccc5c(n4)NC(=O)CS5)CC3)c2c1` the value was 209 nM.
In turn, `CCN(CC)CCCN(C(=O)Nc1c(Cl)cncc1Cl)c1nc(-c2ccc(F)cc2)cs1` yielded an XC50 of 241 nM.
Consider `CCCCCCN1CCC(NCc2ccc(C)cc2)CC1`, for which the XC50 turned out to be 860 nM.
On to `COc1ccc2nccc([C@@H](O)CN3CCC(NCc4cc5cccc(OC)c5o4)CC3)c2c1`, for which the XC50 amounted to 794 nM.
As for `Cc1ccoc1C(=O)Nc1cccc(-c2cccc(-c3nc4ccccc4[nH]3)c2)c1`, the XC50 stood at 1220 nM.
`CC(C)NC(C)(C)CN(Cc1ccc(-c2ccc(C(F)(F)F)cc2)cc1)C(=O)Cn1c(CCc2cccc(F)c2F)nc(=O)c2ccccc21` returned an XC50 of 908 nM.
`O=C(NC1CCC(CN2CCC(c3c[nH]c4ccccc34)CC2)CC1)c1cnn(-c2ccccc2)c1-c1ccccc1Cl` (configuration not stated) returned an XC50 of 182 nM.
`CC(Cc1ccc(NC(=O)CCCc2ccccc2)cc1)NCCc1cccc(Cl)c1` (configuration not stated): the XC50 worked out at 945 nM.
Consider `N#Cc1ccc(-c2ccc(C(=O)NCC3CCN(CCN4CCC(c5ccc6c(c5OCC(N)=O)CCCC6)CC4)CC3)cc2)cc1`, for which the XC50 was 443 nM.
Regarding `COc1ccc(C2CC(c3cccs3)=NN2C(=O)CNc2cccc(C#N)c2)cc1OC` (configuration not stated), the XC50 came to 1450 nM.
Compound `CC(Cc1ccc(NC(=O)c2ccc(NCCc3ccccc3)cc2)cc1)NCCc1cccc(Cl)c1` (configuration not stated) had an XC50 of 854 nM.
`O=C(NC1CCCCC1)N(Cc1cccc(-c2ccc(CNC3CCCC3)cc2)c1)C1CCN(Cc2ccccc2)CC1` displayed an XC50 of 951 nM.
As for `CC(=O)Nc1ccc(C(=O)Nc2cccc(-c3csc(-c4nc5ccccc5[nH]4)c3)c2)cn1`, the XC50 came to 119 nM.
Take `C=CCNS(=O)(=O)c1ccc(NC(=O)C(C)Oc2ccc([N+](=O)[O-])cc2)cc1` (configuration not stated): the XC50 is 1220 nM.
Take `CS(=O)(=O)Nc1ccc2[nH]cc(C3CCN(CC(O)C4CCN(C(=O)/C=C/c5ccc(Cl)c(Cl)c5)CC4)CC3)c2c1` (configuration not stated): the XC50 turned out to be 1760 nM.
Regarding `CCC(C)CN1CCN(c2ccc(NC(=O)c3cccs3)cc2)C(C)C1` (configuration not stated), the XC50 was 544 nM.
`O=C1C2C3SC(c4c3ccc3ccccc43)C2C(=O)N1c1ccccc1` (configuration not stated) registered an XC50 of 770 nM.
Compound `O=C(COc1ccccc1)Nn1cnc2ccccc21` came in with an XC50 of 1050 nM.
For `CC(C)Sc1nncc(-c2cnnc(SC(C)C)n2)n1`, the XC50 turned out to be 141 nM.
Compound `COc1ccc2c(=NN=Cc3ccncc3)cc(C)[nH]c2c1` showed an XC50 of 814 nM.
As to `O=C(COc1cnc2ccccc2n1)Nc1ccccc1Sc1ccc(Cl)cc1`, the XC50 was 728 nM.
Compound `CCOc1cc(C(=O)NC2CC(C)(C)NC(C)(C)C2)ccc1-c1cc2cc(Cl)c(Cl)cc2[nH]1` came in with an XC50 of 770 nM.
As for `CCCCOC(=O)NCCCC[C@H](NC(=O)OC(C)(C)C)C(=O)N[C@H](C(=O)OC(c1ccccc1)c1ccccc1)[C@H]1O[C@@H](n2ccc(=O)[nH]c2=O)[C@@H]2OC(C)(C)O[C@@H]21`, the figure is 1090 nM; as for `c1ccc2[nH]c(-c3ccc(-c4ccc(CN5CCC(N6CCCCC6)CC5)cc4)s3)nc2c1`, 153 nM; as for `Cc1cccc(Cn2ccc3c4c(N)nc(N)nc4ccc32)c1`, 7.35 nM.
`CCCCc1ccc2[nH]cc(C3=CCN(C)CC3)c2c1Br` displayed an XC50 of 627 nM.
For `Cc1cccc2nc(-c3ccc(-c4ccc(NC(=O)Nc5ccc(Cl)cc5)cc4)cc3)[nH]c12` the value was 100 nM; for `COC(=O)c1cccc(OCCNC2CCN(C[C@H](O)c3ccnc4ccc(OC)cc34)CC2)c1`, 342 nM; for `CC(=O)Nc1cc(C(=O)Nc2cccc(-c3csc(-c4nc5ccccc5[nH]4)c3)c2)ccc1C`, 465 nM.
`CC(C)CNCc1cccc(-c2ccccc2CN(C(=O)Nc2ccccc2)C2CCN(Cc3ccccc3)CC2)c1`: the XC50 was determined as 642 nM.
Compound `O=S(=O)(NCCN1CCCC1)c1ccc(-c2cccc(CNC3Cc4ccccc4C3)c2)cc1` came in with an XC50 of 618 nM.
The compound `COc1cc(NC(=O)c2cccc([N+](=O)[O-])c2)cc(S(=O)(=O)c2ccc(Cl)cc2)c1` had an XC50 of 1130 nM.
For `O=S(=O)(c1cc(Cl)sc1Cl)N(CCC(O)(C(F)(F)F)C(F)(F)F)Cc1cccc(O)c1`, the XC50 worked out at 744 nM.
With `COc1ccc2nccc([C@@H](O)CN3CCC(NC(=O)/C=C/c4ccc5[nH]c(=O)ccc5c4)CC3)c2c1`, the XC50 was found to be 967 nM.
Compound `COc1ccc(NC(=O)/C=C/c2cc(Br)ccc2F)cc1OCCN(C(C)C)C(C)C` had an XC50 of 757 nM.
Compound `CN(C)c1ccc(-c2ccc(C(=O)NC3CCN(Cc4ccccc4)CC3)s2)cc1` came in with an XC50 of 1050 nM.
The compound `Nc1ncc(-c2ccccc2)cc1-c1nc2cc(Cl)c(F)cc2[nH]1` gave an XC50 of 263 nM.
As for `O=S(=O)(NCCN1CCCC1)c1ccc(-c2ccc(CNC3Cc4ccccc4C3)cc2)cc1`, the figure is 664 nM.
`Cc1cc(N2CCCC2)nc(Nc2ccc(NC(=O)C(C)C)cc2)n1` returned an XC50 of 1100 nM.
Compound `C=CC[C@@H](C(=O)OCC)[C@@H]1[C@@H](N(CC=C)C(=O)OC(C)(C)C)CCN1C(=O)OCc1ccccc1` showed an XC50 of 964 nM.
`Cc1cc(N)c2cc(NC(=O)/C=C/c3ccccc3)ccc2n1`: the XC50 is 757 nM.
